Results reported in the supplement of paper PMC6470124.

Key:
[1] = absolute recovery over vacuum-assisted evaporative concentration; higher = better recovery; conditions: enrichment method: VEC
Procedure, shortened: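 After spiking with standards before concentration, after concentration or not at all, at 1000 ng/L for wastewater or 200 ng/L for nanopure and surface water with class- and compound-specific adjustments, samples of 6 mL influent, 15 mL effluent and 60 mL surface or nanopure water were evaporated at 55 °C and 20 mbar to about 0.3 mL. They were brought to 0.4 mL, centrifuged, given internal standards and analysed by LC-HRMS/MS. Absolute recovery, (response ratio pre − unspiked)/(post − unspiked) × 100, used averages of ≥ 2 replicates.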

[2] = LC retention time (Atlantis T3, 5-95% MeOH gradient, 0.1% formic acid); higher = more retained / less polar
Procedure, shortened: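 Retention times refer to reference standards measured by liquid chromatography with high-resolution tandem mass spectrometry. Separation was on an Atlantis T3 C18 column (3 × 150 mm, 3 μm) at 0.3 mL/min with a 5 to 95% methanol gradient over 17.5 min, both solvents carrying 0.1% formic acid. Positive and negative electrospray were run separately on a QExactive Plus, and TraceFinder peak integration (5 ppm tolerance, at least three points per peak) was reviewed by hand.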

[3] = absolute recovery over mixed-bed multilayer solid-phase extraction; higher = better recovery; conditions: enrichment method: SPE
Procedure, shortened: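 Elution from a three-layer mixed-bed cartridge used basic followed by acidic ethyl acetate/methanol, after loading either 1000 mL of unfiltered nanopure water or 100–250 mL of wastewater that had been set to pH 6.5 and glass-fibre filtered. Standards went in before or after extraction, or were left out, at 200 ng/L (water) or 1000 ng/L (wastewater), with class exceptions. Internal standards were added afterwards, and measurement was by liquid chromatography with high-resolution tandem mass spectrometry in both ionisation modes. For absolute recovery, background-corrected response ratios of pre-spiked samples were compared with those of post-spiked samples and averaged over at least two replicates.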

absolute recovery ([1]; wastewater effluent) | absolute recovery ([1]; wastewater influent) | LC retention time [2] | absolute recovery ([3]; nanopure water) | absolute recovery ([3]; surface water) | absolute recovery ([3]; wastewater effluent) | absolute recovery ([3]; wastewater influent) | SMILES
94% | 99.9% | 18.4 min | 83.7% | 87% | 87.3% | 88.2% | COc1ccc(CN(CC[NH+](C)C)c2ccccn2)cc1 [Pyrilamine]
19.3% | – | 22.7 min | 93% | 62.5% | 66.5% | 60.8% | CCCCCCCCn1sc(Cl)c(Cl)c1=O [4-5-Dichloro-2-n-octyl-isothiazol-3(2H)-on (=DCOIT)]
122% | 88.2% | 9.37 min | 88.2% | – | 95.1% | – | O=c1ccn(C2OC(CO)C(O)C2(F)F)c(=O)[nH]1 (stereo not given) [2-2-Difluorodeoxyuridin]
106% | 103% | 12.3 min | 82.7% | 83.1% | 86.3% | 83.9% | CC(C)(C)[NH2+]CC(O)COc1nsnc1N1CCOCC1 (stereo not given) [Timolol]
103% | – | 18.9 min | 99.6% | 97.1% | 100% | – | COc1c(C)c2c(c(O)c1CC=C(C)CCC(=O)[O-])C(=O)OC2 [Mycophenolic-Acid]
105% | 108% | 19.8 min | 96.4% | 99% | – | 86.6% | COCC(C)N(C(=O)C(=O)[O-])c1c(C)csc1C (stereo not given) [Dimethenamid-OXA]
100% | 105% | 15.1 min | 93.7% | 103% | – | 81.2% | C[N+]1([O-])CCN2c3ccccc3Cc3ccccc3C2C1 (stereo not given) [Mianserin-N-Oxide]
73.6% | 72.1% | 11.4 min | 62.3% | 66.9% | 62.4% | 78.1% | C#CC[NH+](C)Cc1ccccc1 [N-Methyl-N-propargylbenzylamine]
102% | 93.4% | 18.8 min | 93.6% | 93.1% | 90.1% | 93.2% | CCOC(=O)C1CC(=O)C(=C([O-])C2CC2)C(=O)C1 (stereo not given) [Trinexapac-ethyl]
101% | 91.8% | 13.9 min | 102% | 100% | 92.7% | 84.6% | CC(=O)OC1C(C)OC(n2cc(F)c(N)nc2=O)C1OC(C)=O (stereo not given) [2-3-di-O-acetyl-5-deoxy-5-fluorocytidin]
103% | 100% | 14.9 min | 92.3% | 90.5% | 92% | 99.5% | CC(=O)NCC1CN(c2ccc(N3CCOCC3)c(F)c2)C(=O)O1 (stereo not given) [Linezolid]
83.6% | 72.2% | 7.61 min | 82.7% | 63.7% | 69.7% | 69.5% | CC(C)C([NH3+])C(=O)OCC(CO)OCn1cnc2c(=O)[nH+]c(N)[nH]c21 (stereo not given) [Valganciclovir]
103% | 95.9% | 17.3 min | 91.1% | 85.3% | 96.6% | 93.9% | CCC1OC(=O)C(C)C(OC2CC(C)(OC)C(O)C(C)O2)C(C)C(OC2OC(C)CC([N+](C)(C)[O-])C2O)C(C)(OC)CC(C)C(=O)C(C)C(O)C1(C)O (stereo not given) [Clarithromycin-N-Oxide]
22.9% | 37.9% | 20 min | 90.1% | 82.6% | 79.4% | 89% | C1=Cc2ccccc2Nc2ccccc21 [Iminostilben]
88.4% | 89.8% | 19.5 min | 98.3% | 86.5% | 87.2% | 98.8% | O=C(C1CCCCC1)N1CC(=O)N2CCc3ccccc3C2C1 (stereo not given) [Praziquantel]
99.8% | 54.6% | 17.5 min | 74.9% | 75.6% | 74.8% | 95.2% | CC12CCC(=O)C=C1CCC1C2C(=O)CC2(C)C1CCC2(O)C(=O)CO (stereo not given) [Cortison]
102% | 103% | 13.4 min | 93.4% | 93.3% | 91.3% | 94.6% | CCNc1nc(N)nc(Cl)n1 [Atrazin-Desisopropyl]
75.3% | 70.8% | 20.9 min | 86.2% | – | 73.8% | 143% | CC(C)CC(C)(O)C#CC(C)(O)CC(C)C (stereo not given) [Surfynol-104A]
104% | 99.2% | 17.6 min | – | 92.6% | 97.9% | 94.4% | O=C([O-])c1cc(Br)c([O-])c(Br)c1 [3-5-Dibromo-4-hydroxybenzoic-acid]
59.5% | 70.2% | 19.3 min | 78.6% | 70.5% | 75.3% | 91.5% | CC=CC(=O)N(CC)c1ccccc1C [Crotamiton]
124% | 96.5% | 3.46 min | 10.3% | 3.8% | 4.2% | 6.4% | Nc1ccc(S(=O)(=O)[O-])cc1 [Sulfanilic-acid]
84.4% | 62.4% | 24.6 min | 76.1% | 73.6% | 78% | 65% | CCCOc1nc2ccc(I)cc2c(=O)n1CCC [Proquinazid]
97.6% | 85% | 7.84 min | 64.8% | 65.4% | 56.8% | 67.5% | CC(=O)N(C)c1ccc(N)cc1 [N-(4-Aminophenyl)-N-methyl-acetamid]
99.7% | – | 12.5 min | 96.4% | – | 94.5% | – | Cn1c(=O)c2c(ncn2C)n(C)c1=O [Coffein]
103% | 104% | 13.1 min | 98.2% | 93.4% | 93.9% | 97.1% | Cc1cn(C2CC(N=[N+]=[N-])C(CO)O2)c(=O)[nH]c1=O (stereo not given) [Zidovudine]
101% | 106% | 9.03 min | 102% | 112% | 102% | 102% | COc1nc(C)nc(N)n1 [2-Amino-4-methoxy-6-methyl-1-3-5-triazin]
48% | 36.3% | 12.6 min | 50% | 41.1% | 53.3% | 58.7% | COC(=O)C(Cc1ccccc1)NC(=O)C([NH3+])CC(=O)[O-] (stereo not given) [Aspartam]
113% | 99.5% | 12 min | 98.6% | 93.8% | 89.2% | 92.8% | CC(=O)Nc1ccc(S(=O)(=O)[N-]c2ncccn2)cc1 [N4-Acetyl-Sulfadiazin]
86.4% | 116% | 16.2 min | 82.7% | 84.1% | 85.4% | 122% | Clc1ccc(C(c2ccccc2)N2CC[NH2+]CC2)cc1 (stereo not given) [1-[(4-Chlorophenyl)phenylmethyl]piperazine]

Continued, molecule first:

SMILES | absolute recovery ([1]; wastewater effluent) | absolute recovery ([1]; wastewater influent) | LC retention time [2] | absolute recovery ([3]; nanopure water) | absolute recovery ([3]; surface water) | absolute recovery ([3]; wastewater effluent) | absolute recovery ([3]; wastewater influent)
N#Cc1nn(-c2c(Cl)cc(C(F)(F)F)cc2Cl)c(N)c1S(=O)C(F)(F)F (stereo not given) [Fipronil] | 103% | 98.5% | 20.4 min | 99% | 95.7% | 94.2% | 88.5%
Clc1ccccc1C[NH+]1CCc2sccc2C1 [Ticlopidin] | 51% | 45.4% | 12.7 min | 83.9% | 85.9% | 84.5% | 81.1%
CN1COCN(Cc2cnc(Cl)s2)C1=N[N+](=O)[O-] [Thiamethoxam] | 100% | 105% | 12.2 min | 98.4% | 93.9% | 96.3% | 94.2%
CC(C)CC(C[NH3+])CC(=O)[O-] (racemic) [Pregabalin-rac] | 108% | 101% | 10.3 min | 16.3% | 2% | 2.6% | –
O=C([O-])COc1ccc(Cl)cc1Cl [2-4-D] | 103% | 106% | 19.3 min | 95.6% | 94% | 93.5% | 91.2%
O=C1Nc2ccc(Cl)cc2C(c2ccccc2)=NC1O (stereo not given) [Oxazepam] | 104% | 98.7% | 18.4 min | 99.5% | 98.7% | 91.9% | 93.9%
O=C1CCC2(O)C3Cc4ccc(O)c5c4C2(CC[NH+]3CC2CC2)C1O5 (stereo not given) [Naltrexon] | 103% | 99% | 9.63 min | 87.8% | 98.2% | 95.7% | 94.3%
Cc1ccc(NC(=O)N(C)C)cc1Cl [Chlortoluron] | 107% | 102% | 18.2 min | 98% | 101% | 93% | 94.8%
CCCCOCCOCCOCc1cc2c(cc1CCC)OCO2 [Piperonyl-butoxide] | 125% | 88.2% | 22.7 min | 75.2% | 66.7% | 88.9% | –
CON(C)C(=O)Nc1ccc(Cl)c(Cl)c1 [Linuron] | 101% | 99.8% | 19.5 min | 96.5% | 98.3% | 92.4% | 93.3%
CCOP(=O)(OCC)OCC [Triethylphosphat] | 83.5% | 79.6% | 15.9 min | 76.6% | 87.7% | 81.5% | –
COP(=O)(OC)SCn1c(=O)oc2cc(Cl)cnc21 [Azamethiphos] | 82.9% | 67% | 16.6 min | 65.5% | 65.7% | 65.1% | 50.5%
CCN(C)C(=O)Oc1cccc(C(C)[NH+](C)C)c1 (stereo not given) [Rivastigmin] | 102% | 105% | 12.2 min | 90.4% | 94.7% | 90.6% | 98.8%
CCOCCN(C(=O)CCl)C(=C(C)C)c1ccccc1 [Pethoxamid] | 87.2% | 92.5% | 20.3 min | 95.5% | 85.7% | 86.7% | 99.6%
Cc1cc(C)nc(Nc2ccccc2)n1 [Pyrimethanil] | 88.8% | 86.4% | 18.3 min | 89.2% | 91.1% | 91.4% | 90.3%
O=C(Nc1ccccc1-c1ccc(Cl)cc1)c1cccnc1Cl [Boscalid] | 88.4% | 105% | 19.4 min | 102% | 97.2% | 95.2% | 104%
c1ccc(CN2CC[NH2+]CC2)cc1 [1-Benzylpiperazin] | 109% | 140% | 6.45 min | 58.2% | 60.9% | 56.2% | 72.5%
O=C(NCC(O)CO)c1c(I)c(C(=O)NCC(O)CO)c(I)c(N(CCO)C(=O)CO)c1I (stereo not given) [Ioversol] | 83.7% | 86.5% | 7.88 min | 55.7% | – | 57.2% | 36%
N#Cc1cc(Br)c([O-])c(Br)c1 [Bromoxynil] | 101% | 90.3% | 18.6 min | 92.1% | 82.5% | 86.9% | 108%
COc1cc(C)c(C(=O)c2c(OC)ccc(Br)c2C)c(OC)c1OC [Metrafenone] | 84.4% | 101% | 21.4 min | 103% | 92.4% | 85.4% | 117%
CCCCCCCCn1sccc1=O [2-n-Octyl-4-isothiazolin-3-on (=OIT)] | 97.9% | 45.2% | 20.3 min | 93% | 91.6% | 91.8% | 90.7%
CC1COC(Cn2cncn2)(c2ccc(Oc3ccc(Cl)cc3)cc2Cl)O1 (stereo not given) [Difenoconazol] | 100% | 126% | 21.4 min | 90.2% | 100% | 102% | 70.9%
CCCOC(=O)NCCC[NH+](C)C [Propamocarb] | 105% | 105% | 8.99 min | 83% | 83.9% | 84.1% | 86.5%
CC(C)=NOCCOC(=O)C(C)Oc1ccc(Oc2cnc3cc(Cl)ccc3n2)cc1 (stereo not given) [Propaquizafop] | 68.4% | 13.2% | 22.4 min | 79.1% | 91.4% | 93.7% | 80.9%
